Source: patent US8367873B2, “Phenyl-substituted bicyclooctane-1,3-dione derivatives” (Bayer Cropscience AG, priority 2008, dated 2013)

What was measured:
Assay type in all cases: in vivo
[1] = tested on: monocotylidonous and dicotylidonous weed and crop plants; assay: Herbicidal post-emergence action (other test plants); conditions: post-emergence method; for herbicidal effect against AVEFA (Avena fatua): 80 g/ha; for pest or weed control at 80 g/ha: 504 h, Avena fatua, read-out: herbicidal effect against AVEFA (Avena fatua)
Procedure: (§1) Seeds of monocotylidonous and dicotylidonous weed and crop plants are placed in sandy loam in wood fibre pots, covered with soil and cultivated in a greenhouse under good growth conditions. Two to three weeks after sowing, the test plants are treated at the one-leaf stage. The test compounds, formulated as wettable powders (WP), are then with a water application rate of 600 l/ha (converted), with 0.2% of wetting agent added, sprayed onto the green parts of the plants in different amounts. After the test plants have been kept in the greenhouse under optimum growth conditions for about three weeks, the effect of the preparations is assessed visually in comparison to untreated controls (herbicidal effect in percent: 100% effect=the plants have died, 0% effect=like control plants).

Echinocloa crus-galli = assay: Herbicidal post-emergence action; conditions: post-emergence method; for herbicidal effect against ECHCG (Echinochloa crus-galli): 80 g/ha; for pest or weed control at 80 g/ha: Echinochloa crus-galli, 504 h, read-out: herbicidal effect against ECHCG (Echinochloa crus-galli)
Procedure: as §1

Lolium multiflorum = assay: Herbicidal post-emergence action; conditions: post-emergence method; for herbicidal effect against LOLMU (Lolium multiflorum): 80 g/ha; for pest or weed control at 80 g/ha: Lolium multiflorum, 504 h, read-out: herbicidal effect against LOLMU (Lolium multiflorum)
Procedure: as §1

Alopecurus myosuroides = assay: Herbicidal post-emergence action; conditions: post-emergence method; for herbicidal effect against ALOMY (Alopecurus myosuroides): 80 g/ha; for pest or weed control at 80 g/ha: Alopecurus myosuroides, 504 h, read-out: herbicidal effect against ALOMY (Alopecurus myosuroides)
Procedure: as §1

Setaria viridis = assay: Herbicidal post-emergence action; conditions: post-emergence method; for herbicidal effect against SETVI (Setaria viridis): 80 g/ha; for pest or weed control at 80 g/ha: Setaria viridis, 504 h, read-out: herbicidal effect against SETVI (Setaria viridis)
Procedure: as §1

Row | SMILES | herbicidal effect against AVEFA (Avena fatua) [1] [%] | herbicidal effect against ECHCG (Echinochloa crus-galli) (Echinocloa crus-galli) [%] | herbicidal effect against LOLMU (Lolium multiflorum) (Lolium multiflorum) [%] | herbicidal effect against ALOMY (Alopecurus myosuroides) (Alopecurus myosuroides) [%] | herbicidal effect against SETVI (Setaria viridis) (Setaria viridis) [%] | pest or weed control at 80 g/ha [1] [%] | pest or weed control at 80 g/ha (Echinocloa crus-galli) [%] | pest or weed control at 80 g/ha (Lolium multiflorum) [%] | pest or weed control at 80 g/ha (Alopecurus myosuroides) [%] | pest or weed control at 80 g/ha (Setaria viridis) [%]
1 | CCc1cc(C)cc(CC)c1C1=C(O)[C@H]2CC3(C[C@H]2C1=O)SCCS3 (relative stereo) [I-a-16] | 30 | 90 | 80 | 30 | 80 |  |  |  |  | 
2 | COC(=O)OC1=C(c2c(C)cc(C)cc2C)C(=O)C2CC3(CC12)OCCCCO3 (racemic) [I-c-49] | 80 | 90 | 100 | 100 | 80 |  |  |  |  | 
3 | C#CCON=C1C[C@@H]2C(O)=C(c3c(CC)cc(C)cc3CC)C(=O)[C@@H]2C1 (relative stereo) [I-a-33] | 0 | 100 | 100 | 100 | 90 |  |  |  |  | 
4 | Cc1cc(C)c(C2=C(OC(=O)C(C)(C)CCl)C3CC(=O)CC3C2=O)c(C)c1 (centres unmarked) [I-b-52] | 0 | 100 | 0 | 0 | 90 |  |  |  |  | 
5 | CCc1cc(C)cc(CC)c1C1=C(O)C2CC3(CC2C1=O)OCCCS3 (mixture of isomers) [I-a-20] | 80 | 100 | 100 | 90 | 90 |  |  |  |  | 
6 | CON=C1CC2C(=O)C(c3c(C)cc(C)cc3C)=C(O)C2C1 (centres unmarked) [I-a-44] | 0 | 100 | 20 | 20 | 80 |  |  |  |  | 
7 | CCc1cc(C)cc(CC)c1C1=C(OC(=O)OC)[C@H]2C[C@@]3(COC(C)(C)O3)C[C@H]2C1=O [I-c-1] |  |  |  |  |  | 60 | 60 | 100 | 100 | 40
8 | Cc1cc(C)c(C2=C(OC(=O)CC(C)C)C3CC(=O)CC3C2=O)c(C)c1 (centres unmarked) [I-b-56] | 0 | 100 | 0 | 20 | 100 |  |  |  |  | 
9 | CCc1cc(C)cc(C)c1C1=C(O)C2CC3(CC2C1=O)OCC=CCO3 (centres unmarked) [I-a-60] | 90 | 100 | 100 | 100 | 100 |  |  |  |  | 
10 | CCOC(=O)OC1=C(c2c(C)cc(C)cc2C)C(=O)C2CC(=O)CC12 (racemic) [I-c-58] | 0 | 100 | 0 | 0 | 100 |  |  |  |  | 
11 | CCc1cc(C)cc(CC)c1C1=C(O)[C@H]2CC3(C[C@H]2C1=O)SCCCS3 [I-f-1] |  |  |  |  |  | 40 | 90 | 90 | 80 | 80
12 | CCc1cc(C)cc(CC)c1C1=C(OC(=O)OC)C2CC3(CC2C1=O)SCCCS3 (centres unmarked) [I-c-20] | 90 | 100 | 100 | 90 | 100 |  |  |  |  | 
13 | COC(=O)OC1=C(c2c(C)cc(C)cc2C)C(=O)C2CC(=O)CC12 (racemic) [I-c-57] | 0 | 100 | 0 | 90 | 90 |  |  |  |  | 
14 | CCOC(=O)OC1=C(c2c(C)cc(C)cc2C)C(=O)C2CC3(CC12)OCC(C)CO3 (mixture of isomers) [I-c-48] | 20 | 90 | 100 | 20 | 80 |  |  |  |  | 
15 | C#CCON=C1CC2C(=O)C(c3c(C)cc(C)cc3C)=C(OC(=O)C(C)(C)C)C2C1 (centres unmarked) [I-b-59] | 0 | 80 | 80 | 20 | 0 |  |  |  |  | 
16 | C#CCON=C1CC2C(=O)C(c3c(C)cc(C)cc3C)=C(OC(=O)OCC)C2C1 (racemic) [I-c-60] | 0 | 100 | 80 | 20 | 0 |  |  |  |  | 
17 | COCC(=O)OC1=C(c2c(C)cc(C)cc2C)C(=O)C2CC3(COC(C)(C)O3)CC12 (mixture of isomers) [I-b-47] | 80 | 100 | 90 | 90 | 0 |  |  |  |  | 
18 | C#CCON=C1CC2C(=O)C(c3c(C)cc(C)cc3C)=C(OC(=O)OC)C2C1 (racemic) [I-c-59] | 0 | 100 | 60 | 0 | 20 |  |  |  |  | 
19 | CCOC(=O)OC1=C(c2c(CC)cc(C)cc2CC)C(=O)C2CC(=O)CC12 (centres unmarked) [I-c-17] |  |  |  |  |  | 0 | 100 | 40 | 30 | 90
20 | CCc1cc(C)cc(CC)c1C1=C(O)[C@H]2CC(=O)C[C@H]2C1=O (stereo in doubt) [I-a-4, 2-(2,6-diethyl-4-methylphenyl)-3-hydroxy-3a,4,6,6a-tetrahydropentalene-1,5-dione] |  |  |  |  |  | 30 | 100 | 20 | 60 | 100
21 | CCc1cc(C)cc(C)c1C1=C(OC(=O)C(C)(C)C)C2CC(=O)CC2C1=O (centres unmarked) [I-b-71] | 0 | 100 | 0 | 0 | 100 |  |  |  |  | 
22 | CCc1cc(C)cc(CC)c1C1=C(OC(=O)OC)C2CC(=O)CC2C1=O (centres unmarked) [I-c-42] | 0 | 100 | 0 | 0 | 100 |  |  |  |  | 
